ChEMBL document CHEMBL5053558, “Novel Indole Compounds as TEAD Inhibitors for Treating Cancer” (ACS Med Chem Lett, 2021)

Experiment: Inhibition of TEAD in human tumour cells assessed as YAP1/TAZ-TEAD modulation incubated for 48 hrs by Bright-Glo luciferase assay
Assay type: cell-based
Settings: Tumor Cell line

| Structure (SMILES) | IC50 [µM] |
| --- | --- |
| C=CC(=O)Nc1ccc2c(c1)cc(C)n2-c1ccc(C(F)(F)F)cc1 | 0.012 |
| C=CC(=O)Nc1ccc2c(ccn2-c2ccc(C(F)(F)F)cc2)c1 | 0.008 |
| C=CC(=O)Nc1ccc2c(c1)c(COC)cn2-c1ccc(C(F)(F)F)cc1 | 0.015 |
| C=CC(=O)Nc1cc2ccn(Cc3cccc(C(F)(F)F)c3)c2cc1F | 0.018 |
| C=CC(=O)Nc1ccc2c(c1)c(C)cn2-c1ccc(C(F)(F)F)cc1 | 0.009 |
| C=CC(=O)Nc1ccc2c(ccn2Cc2ccc(-c3cccc(C(F)(F)F)c3)cc2)c1 | 0.02 |
